Source: patent US20120214734A1, “TREATMENT OF METABOLIC DISORDERS” (priority 2011, published 2012)

Assays:
Assay type in all cases: in vivo, human
[1] = Example 3: ACE inhibitor given to severely obese person with low HDL-C; details: 75 mg/day, after 1 year; baseline 25 mg/dL
Procedure: A person presents with normal blood pressure (125/85), normal fasting glucose (105 mg/dL), and normal triglyceride (145 mg/dL). They are severely obese with a BMI of 40. […] The patient is considered to be at significant risk of developing metabolic syndrome and/or cardiovascular disease later in life. They are advised of the risk and of the beneficial effects of losing weight. After 1 year the patient advises that despite strenuous effects to lose weight, including dieting and exercise, their bodyweight remains the same. They are prescribed Captopril, 75 mg/day.

[2] = Retrospective screen of chronic-care charts of obese hypertensive prisoners: random serum glucose, fasting lipid panel, blood pressure, weight; details: for dose-dependent effects: chart study, discussion
Source text: One-hundred ten (110) patient charts in chronic care for hypertension at an 1800-capacity prison were initially screened. The data included age, weight, height, ethnicity, medications, lipid panel results for glucose, triglycerides and HDL-C, and blood pressure. All known or previously diagnosed diabetics were excluded from the study.
For cases involving ACE inhibitor plus simvastatin, further analysis included evaluation of total cholesterol and calculated low density lipoprotein (LDL-C).
In order to evaluate the effects of simvastatin without ACE inhibitor, 5 additional charts were screened (increasing n to 13).
The data were analyzed with respect to random serum lab values including random serum glucose and fasting lipid panel (which included total cholesterol, HDL-C, TG, and the calculated LDL-C). […] In addition, a few charts were evaluated for temporal changes spanning chronic care visits including weight, mean arterial blood pressure, medication adjustments, and random serum values of HDL-C, triglycerides, and glucose. A two-tailed student t test was used to test for significance between 2 sample means. Linear regression analysis with F statistic was used to obtain goodness of fit. Only coefficients of determination (r2) of 0.1 or greater were reported. […] The level of significance used was a probability (P)<0.05.

[3] = Example 2: ACE inhibitor given to non-obese person with low HDL-C; details: 10 mg/day, after 1 year; baseline 30 mg/dL; without concomitant weight loss or lifestyle changes
Procedure: A non-obese person presents for physical examination. […] The patient's parent is on anti-hypertension and anti-lipemic medications. The patient's older sibling is obese, hypertensive, and is being treated for coronary artery disease including recent placement of a cardiac stent for primary coronary artery blockage. […] Given the patients family history and low HDL-C […] risk of developing one or more metabolic conditions is considered high. They are prescribed Lisinopril, 10 mg/day.

[4] = FIG. 7, upper limit of normal daily dosages
[5] = one individual over 44 months (FIG. 3), captopril from 24 months, no anti-lipemic agent
[6] = FIG. 5A, controls without ACE inhibitor (with and without Hctz)

C[C@H](CS)C(=O)N1CCC[C@H]1C(=O)O [captopril]
HDL-C levels [1]: 30 mg/dL
triglyceride, dose effect ([2]; FIG. 6B): significant (P <0.02) dose-dependent decrease
mean HDL-C [2, 4]: parallel increases
mean glucose [2, 4]: parallel decreases
mean triglyceride [2, 4]: parallel decreases
dose-dependent effects [2]: dose-dependent effects
HDL-C ([2]; one individual followed over 44 months (FIG. 3), captopril introduced at 24 months, atenolol and hydrochlorothiazide discontinued, no anti-lipemic agent): increased
glucose [2, 5]: decreased
mean arterial blood pressure [2, 5]: decreased
serum triglyceride [2, 5]: decreased

NCCCC[C@H](N[C@@H](CCc1ccccc1)C(=O)O)C(=O)N1CCC[C@H]1C(=O)O [lisinopril]
HDL-C levels [3]: have risen
dose effects with glucose, triglyceride and HDL-C ([2]; 20 and 40 mg/day): occurred
HDL-C, dose effect ([2]; FIG. 6A): significant (P<0.05) dose-dependent increase
mean HDL-C [2, 4]: parallel increases
mean glucose [2, 4]: parallel decreases
mean triglyceride [2, 4]: parallel decreases
dose-dependent effects [2]: dose-dependent effects

CCOC(=O)[C@H](CCc1ccccc1)N[C@@H](C)C(=O)N1CCC[C@H]1C(=O)O [enalapril]
mean HDL-C [2, 4]: parallel increases
mean glucose [2, 4]: parallel decreases
mean triglyceride [2, 4]: parallel decreases

C[C@H](N[C@@H](CCc1ccccc1)C(=O)O)C(=O)N1CCC[C@H]1C(=O)O [enalaprilat]
potency at preventing insulin resistance ([2]; compared with captopril, at presumptive therapeutically equivalent antihypertensive dosages): less potent

NS(=O)(=O)c1cc2c(cc1Cl)NCNS2(=O)=O [Hctz, Hydrochlorothiazide]
mean glucose ([2]; FIG. 5A, controls without ACE inhibitor (stated for both controls, with and without Hctz)): > 110 mg/dL
mean HDL-C [2, 6]: < 42 mg/dL
mean triglyceride [2, 6]: > 159 mg/dL
random serum glucose with age ([2]; FIG. 5C, absence of ACE inhibitor): caused an age-related increase
mean glucose +/-SEM ([2]; presence of Hctz, n=15, no ACE inhibitor, no anti-lipemic): 105.8 ± 5.4 mg/dL
insulin-resistant state ([2]; with vs without Hctz, no ACE inhibitor): did not improve
